# Counter-ions that a name gives are not always drawn. Like-named read-outs stand apart in the source and are kept apart here.
# Test system: Acinetobacter baumannii ATCC17978
# Assay: 90% growth inhibitory concentration (IC90) determination, antimicrobial susceptibility testing
# Format: cell-based
# Conditions: read-out: ATCC 17978 IC90
# Description: Antimicrobial Susceptibility Testing:
# 90% Growth Inhibitory Concentration (IC90) Determination
# The in vitro antimicrobial activity of the compounds was determined according to the following procedure:
# The assay used a 10-points Iso-Sensitest broth medium to measure quantitatively the in vitro activity of the compounds against Acinetobacter baumannii ATCC17961 and ATCC17978.
# Stock compounds in DMSO were serially twofold diluted (e.g. range from 50 to 0.097 μM final concentration) in 384 wells microtiter plates and inoculated with 49 μl the bacterial suspension in Iso-Sensitest medium to have a final cell concentration of ˜5×10^(5) CFU/ml in a final volume/well of 50 ul/well. Microtiter plates were incubated at 35±2° C.
# Bacterial cell growth was determined with the measurement of optical density at λ=600 nm each minutes over a time course of 16 h. Growth inhibition was calculated during the logarithmic growth of the bacterial cells with determination of the concentration inhibiting 50% (IC50) and 90% (IC90) of the growth.
# Table 1 provides the 90% growth inhibitory concentrations (IC90) in micromoles per liter of the compounds of present invention obtained against the strain Acinetobacter baumannii ATCC17978.
# [1] = ATCC17978, 90% growth inhibition, Iso-Sensitest broth, OD 600 nm over 16 h, 35±2° C.
IC90 [1],Structure (SMILES),"IC90 (ATCC17978, 16 h)"
394 nM,"CCc1cc(Nc2nccn3c(-c4ccc(OC)c(F)c4F)cnc23)ccc1C(=O)NCCOCC[N+](C)(C)CC(=O)O [Example 50, Carboxymethyl-[2-[2-[[4-[[3-(2,3-difluoro-4-methoxy-phenyl)imidazo[1,2-a]pyrazin-8-yl]amino]-2-ethyl-benzoyl]amino]ethoxy]ethyl]-dimethyl-ammonium Formate]",
109 nM,"CCc1cc(Nc2nccn3c(-c4ccc(OC)c(F)c4F)cnc23)ccc1C(=O)NCCOCC[N+](C)(C)C [Example 13, 2-(2-(4-((3-(2,3-difluoro-4-methoxyphenyl)imidazo[1,2-a]pyrazin-8-yl)amino)-2-ethylbenzamido)ethoxy)-N,N,N-trimethylethanaminium Formate]",
120 nM,"COc1ccc(-c2cnc3c(Nc4ccc(C(=O)N5CCN(C(=O)C[N+](C)(C)C)CC5)c(Cl)c4)nccn23)cc1F [Example 31, [2-[4-[2-Chloro-4-[[3-(3-fluoro-4-methoxyphenyl)imidazo[1,2-a]pyrazin-8-yl]amino]benzoyl]piperazin-1-yl]-2-oxoethyl]-trimethylazanium Formate]",
2220 nM,"COc1ccc(-c2cnc3c(Nc4ccc(C(=O)NCCC5CC[N+](C)(CC(=O)O)CC5)c(C)c4)nccn23)cc1 (stereo not shown) [Example 23, 1-(carboxymethyl)-4-(2-(4-((3-(4-methoxyphenyl)imidazo[1,2-a]pyrazin-8-yl)amino)-2-methylbenzamido)ethyl)-1-methylpiperidin-1-ium Formate]",
,"COc1ccc(-c2cnc3c(Nc4ccc(C(=O)N(C)CCN5CC[N+](C)(C)CC5)c(Cl)c4)nccn23)c(F)c1F [Example 21, 2-chloro-4-[[3-(2,3-difluoro-4-methoxy-phenyl)imidazo[1,2-a]pyrazin-8-yl]amino]-N-[2-(4,4-dimethylpiperazin-4-ium-1-yl)ethyl]-N-methyl-benzamide 2,2,2-trifluoroacetate]",480 nM
405 nM,"CCc1cc(Nc2nccn3c(-c4ccc(OC)c(F)c4F)cnc23)ccc1C(=O)NCCOCC[N+](C)(C)CCCC(=O)O [Example 53, 3-Carboxypropyl-[2-[2-[[4-[[3-(2,3-difluoro-4-methoxy-phenyl)imidazo[1,2-a]pyrazin-8-yl]amino]-2-ethyl-benzoyl]amino]ethoxy]ethyl]-dimethyl-ammonium Formate]",
958 nM,"CC[N+]1(C)CCC(CCNC(=O)c2ccc(Nc3nccn4c(-c5ccc(OC)cc5)cnc34)cc2C)CC1 (stereo not shown) [Example 20, 1-ethyl-4-(2-(4-((3-(4-methoxyphenyl)imidazo[1,2-a]pyrazin-8-yl)amino)-2-methylbenzamido)ethyl)-1-methylpiperidin-1-ium Formate]",
293 nM,"Cc1cc(Nc2nccn3c(-c4ccc(OC(F)F)cc4)cnc23)ccc1C(=O)N1CCC(CC[N+](C)(C)C)CC1 [Example 29, 2-(1-(4-((3-(4-(Difluoromethoxy)phenyl)imidazo[1,2-a]pyrazin-8-yl)amino)-2-methylbenzoyl)piperidin-4-yl)-N,N,N-trimethylethanaminium Formate]",
38.8 nM,"CCc1cc(Nc2nccn3c(-c4ccc(OC)c(F)c4F)cnc23)ccc1C(=O)NCCOCC[N+](C)(C)CC(N)=O [Example 52, (2-Amino-2-oxo-ethyl)-[2-[2-[[4-[[3-(2,3-difluoro-4-methoxy-phenyl)imidazo[1,2-a]pyrazin-8-yl]amino]-2-ethyl-benzoyl]amino]ethoxy]ethyl]-dimethyl-ammonium Formate]",
605 nM,"CCc1cc(Nc2nccn3c(-c4ccc(Cl)c(F)c4F)cnc23)ccc1C(=O)NCCC[N+](C)(C)C [Example 28, 3-(4-((3-(4-Chloro-2,3-difluorophenyl)imidazo[1,2-a]pyrazin-8-yl)amino)-2-ethylbenzamido)-N,N,N-trimethylpropan-1-aminium Formate]",
591 nM,"Cc1cc(Nc2nccn3c(-c4ccc(OC(F)F)cc4)cnc23)ccc1C(=O)NCCCCCC[N+](C)(C)C [Example 25, 6-(4-((3-(4-(difluoromethoxy)phenyl)imidazo[1,2-a]pyrazin-8-yl)amino)-2-methylbenzamido)-N,N,N-trimethylhexan-1-aminium Formate]",
566 nM,"CC[N+](CC)(CC)CCCNC(=O)c1ccc(Nc2nccn3c(-c4ccc(OC)c(F)c4F)cnc23)cc1Cl [Example 48, 3-[[2-Chloro-4-[[3-(2,3-difluoro-4-methoxy-phenyl)imidazo[1,2-a]pyrazin-8-yl]amino]benzoyl]amino]propyl-triethyl-ammonium Formate]",
260 nM,"COc1ccc(-c2cnc3c(Nc4ccc(C(=O)N(C)CCC5CC[N+](C)(C)CC5)c(C)c4)nccn23)c(F)c1F [Example 22, 4-[[3-(2,3-Difluoro-4-methoxy-phenyl)imidazo[1,2-a]pyrazin-8-yl]amino]-N-[2-(1,1-dimethylpiperidin-1-ium-4-yl)ethyl]-N,2-dimethyl-benzamide 2,2,2-trifluoroacetate]",
431 nM,"Cc1cc(Nc2nccn3c(-c4ccc(OC(F)F)cc4)cnc23)ccc1C(=O)N1CCN(C(=O)NCC[N+](C)(C)C)CC1 [Example 36, 2-[[4-[4-[[3-[4-(Difluoromethoxy)phenyl]imidazo[1,2-a]pyrazin-8-yl]amino]-2-methyl-benzoyl]piperazine-1-carbonyl]amino]ethyl-trimethyl-ammonium Formate]",
2380 nM,"Cc1cc(Nc2nccn3c(-c4ccc(OC(F)F)cc4)cnc23)ccc1C(=O)N(C)CCC1CCN(C(=O)CC(O)C[N+](C)(C)C)CC1 (stereo not shown) [Example 39, 4-(4-(2-(4-((3-(4-(Difluoromethoxy)phenyl)imidazo[1,2-a]pyrazin-8-yl)amino)-N,2-dimethylbenzamido)ethyl)piperidin-1-yl)-2-hydroxy-N,N,N-trimethyl-4-oxobutan-1-aminium Formate]",
132 nM,"CCc1cc(Nc2nccn3c(-c4ccc(OCC#N)c(F)c4F)cnc23)ccc1C(=O)NCCOCC[N+](C)(C)C [Example 41, 2-[2-[[4-[[3-[4-(Cyanomethoxy)-2,3-difluoro-phenyl]imidazo[1,2-a]pyrazin-8-yl]amino]-2-ethyl-benzoyl]amino]ethoxy]ethyl-trimethyl-ammonium Iodide]",
307 nM,"COc1ccc(-c2cnc3c(Nc4ccc(C(=O)N5CCN(C(=O)C[N+](C)(C)C)CC5)c(C)c4)nccn23)cc1F [Example 32, 2-(4-(4-((3-(3-Fluoro-4-methoxyphenyl)imidazo[1,2-a]pyrazin-8-yl)amino)-2-methylbenzoyl)piperazin-1-yl)-N,N,N-trimethyl-2-oxoethan-1-aminium Iodide]",
161 nM,"C[N+]1(CCOCCNC(=O)c2ccc(Nc3nccn4c(-c5ccc(OCC#N)c(F)c5F)cnc34)cc2Cl)CCCC1 [Example 46, 2-Chloro-4-[[3-[4-(cyanomethoxy)-2,3-difluoro-phenyl]imidazo[1,2-a]pyrazin-8-yl]amino]-N-[2-[2-(1-methylpyrrolidin-1-ium-1-yl)ethoxy]ethyl]benzamide Formate]",
249 nM,"COc1ccc(-c2cnc3c(Nc4ccc(C(=O)N5CCC(C(=O)NCC[N+](C)(C)C)CC5)c(C)c4)nccn23)cc1F [Example 27, 2-(1-(4-((3-(3-Fluoro-4-methoxyphenyl)imidazo[1,2-a]pyrazin-8-yl)amino)-2-methylbenzoyl)piperidine-4-carboxamido)-N,N,N-trimethylethanaminium Formate]",

# Reference: patent publication US20230141600A1, “IMIDAZOPYRAZINE DERIVATIVES” (priority 2020, published 2023)
